In ChEMBL document CHEMBL1201862, “PubChem BioAssay data set” (2004):
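Interpolation was linear, between the two tested concentrations surrounding the appropriate level; five concentrations were tested over 48 hours in 96-well plates. Abbreviation: GI50, concentration required for 50% inhibition of growth.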 The source made the active and inactive calls. Cut-off read from the data, not from the text of the source: active = GI50 up to about 1.1 µM and inactive = higher.

What was measured:
Assay in all cases: NCI tumour cell line growth inhibition, 48 h
NCI-H23 = test system: NCI-H23
SNB-75 = test system: SNB-75
SF-295 = test system: SF-295
MDA-MB-435 = test system: MDA-MB-435
HCT-15 = test system: HCT-15
ACHN = test system: ACHN
Malme-3M = test system: Malme-3M
MDA-N = test system: MDA-N
A498 = test system: A498
UO-31 = test system: UO-31
SR = test system: SR
U-251 = test system: U-251
SW-620 = test system: SW-620
UACC-257 = test system: UACC-257
NCI/ADR-RES = test system: NCI/ADR-RES
HT-29 = test system: HT-29
CAKI-1 = test system: CAKI-1
SK-MEL-28 = test system: SK-MEL-28
DU-145 = test system: DU-145
OVCAR-4 = test system: OVCAR-4

| SMILES | GI50 (NCI-H23) | GI50 (SNB-75) | GI50 (SF-295) | GI50 (MDA-MB-435) | GI50 (HCT-15) [µM] | GI50 (ACHN) | GI50 (Malme-3M) | GI50 (MDA-N) | GI50 (A498) | GI50 (UO-31) | GI50 (SR) | GI50 (U-251) | GI50 (SW-620) | GI50 (UACC-257) | GI50 (NCI/ADR-RES) | GI50 (HT-29) | GI50 (CAKI-1) | GI50 (SK-MEL-28) | GI50 (DU-145) | GI50 (OVCAR-4) |
| --- | --- | --- | --- | --- | --- | --- | --- | --- | --- | --- | --- | --- | --- | --- | --- | --- | --- | --- | --- | --- |
| O=c1cc(N2CCOCC2)n2c(ccc3ccccc32)n1 | > 100 µM (inactive) | > 100 µM (inactive) | > 100 µM (inactive) | > 100 µM (inactive) | > 100 | > 100 µM (inactive) | > 100 µM (inactive) | 31.7 µM (inactive) | > 100 µM (inactive) | > 100 µM (inactive) | > 100 µM (inactive) | > 100 µM (inactive) | > 100 µM (inactive) | > 100 µM (inactive) | > 100 µM (inactive) | > 100 µM (inactive) | > 100 µM (inactive) |  |  |  |
| Cc1ccc(/N=N/c2c(O)c(C(=O)Nc3ccccc3)cc3ccccc23)c([N+](=O)[O-])c1 | > 100 µM (inactive) | > 100 µM (inactive) | 70.8 µM (inactive) | > 100 µM (inactive) | > 100 | > 100 µM (inactive) | > 100 µM (inactive) | > 100 µM (inactive) | > 100 µM (inactive) | > 100 µM (inactive) |  | > 100 µM (inactive) | > 100 µM (inactive) | > 100 µM (inactive) | > 100 µM (inactive) | > 100 µM (inactive) | > 100 µM (inactive) | > 100 µM (inactive) | > 100 µM (inactive) | > 100 µM (inactive) |
| Oc1cnnc2nc3ccccc3n12 | > 100 µM (inactive) | > 100 µM (inactive) | > 100 µM (inactive) | > 100 µM (inactive) | > 100 | > 100 µM (inactive) | > 100 µM (inactive) | > 100 µM (inactive) | > 100 µM (inactive) | > 100 µM (inactive) |  | > 100 µM (inactive) | > 100 µM (inactive) | > 100 µM (inactive) | > 100 µM (inactive) | > 100 µM (inactive) | > 100 µM (inactive) | > 100 µM (inactive) | > 100 µM (inactive) | > 100 µM (inactive) |
| CC(C)(C)C1=CC(C)(n2[nH]c(=O)n(-c3ccccc3)c2=O)C=C(C(C)(C)C)C1=O | > 100 µM (inactive) | 98.4 µM (inactive) | > 100 µM (inactive) | > 100 µM (inactive) | > 100 | > 100 µM (inactive) | > 100 µM (inactive) | > 100 µM (inactive) | > 100 µM (inactive) | 44.9 µM (inactive) |  | > 100 µM (inactive) | > 100 µM (inactive) | > 100 µM (inactive) | > 100 µM (inactive) | > 100 µM (inactive) | > 100 µM (inactive) | > 100 µM (inactive) | > 100 µM (inactive) | > 100 µM (inactive) |
| OC(c1ccoc1)c1cc2ccccc2s1 (stereo not drawn) | > 10 µM (inactive) | > 10 µM (inactive) | > 10 µM (inactive) | > 10 µM (inactive) | > 10 | > 10 µM (inactive) |  | > 10 µM (inactive) |  | > 10 µM (inactive) | > 10 µM (inactive) | > 10 µM (inactive) | > 10 µM (inactive) | > 10 µM (inactive) | > 10 µM (inactive) | > 10 µM (inactive) | > 10 µM (inactive) | > 10 µM (inactive) | > 10 µM (inactive) | > 10 µM (inactive) |
| O=C1C=C(Cl)C(=O)C(c2ccc(Cl)cc2)=C1 | 23.2 µM (inactive) | 22.5 µM (inactive) | 45.6 µM (inactive) | 17.9 µM (inactive) | 18.8 | 16.7 µM (inactive) | 20.3 µM (inactive) | 13.3 µM (inactive) | 23.8 µM (inactive) | 14.8 µM (inactive) |  | 15.2 µM (inactive) | 25.5 µM (inactive) | 18.6 µM (inactive) | 26.4 µM (inactive) | 23.7 µM (inactive) | 17.6 µM (inactive) | 20.2 µM (inactive) | 22 µM (inactive) | 17.7 µM (inactive) |
| CC1=Nc2nc3ccccc3n2C(C)(C)C1 | > 100 µM (inactive) | > 100 µM (inactive) | > 100 µM (inactive) | > 100 µM (inactive) | > 100 | > 100 µM (inactive) | 4.54 µM (inactive) | > 100 µM (inactive) | > 100 µM (inactive) | > 100 µM (inactive) | > 100 µM (inactive) | > 100 µM (inactive) | > 100 µM (inactive) | > 100 µM (inactive) | > 100 µM (inactive) | > 100 µM (inactive) | > 100 µM (inactive) |  |  | > 100 µM (inactive) |
| O=C(C#Cc1cn(C2CC(O)C(CO)O2)c(=O)[nH]c1=O)c1ccccc1 (stereo not drawn) | > 100 µM (inactive) | > 100 µM (inactive) | > 100 µM (inactive) | 58.9 µM (inactive) | > 100 | 83.4 µM (inactive) | 12.2 µM (inactive) | 60.3 µM (inactive) |  | > 100 µM (inactive) | 24.8 µM (inactive) | > 100 µM (inactive) | 25.2 µM (inactive) | 55 µM (inactive) | 32.6 µM (inactive) | > 100 µM (inactive) | > 100 µM (inactive) | 39.5 µM (inactive) | > 100 µM (inactive) | 51.4 µM (inactive) |
| CN(C(=O)c1ccccc1)C1CCCC(=O)CC1 (stereo not drawn) | > 100 µM (inactive) | > 100 µM (inactive) | > 100 µM (inactive) | > 100 µM (inactive) | > 100 | > 100 µM (inactive) | > 100 µM (inactive) | > 100 µM (inactive) | > 100 µM (inactive) | > 100 µM (inactive) | > 100 µM (inactive) | > 100 µM (inactive) | > 100 µM (inactive) | > 100 µM (inactive) |  | > 100 µM (inactive) | > 100 µM (inactive) | > 100 µM (inactive) | > 100 µM (inactive) | > 100 µM (inactive) |
| COc1ccc(C(CC(=O)c2ccc3c(c2)OCO3)c2c(O)oc3ccccc3c2=O)cc1OC (stereo not drawn) | 78 µM (inactive) | > 100 µM (inactive) | > 100 µM (inactive) | > 100 µM (inactive) | > 100 | > 100 µM (inactive) | > 100 µM (inactive) | > 100 µM (inactive) | > 100 µM (inactive) | 73.3 µM (inactive) |  | > 100 µM (inactive) | > 100 µM (inactive) | > 100 µM (inactive) | > 100 µM (inactive) | 72.6 µM (inactive) | > 100 µM (inactive) | > 100 µM (inactive) | > 100 µM (inactive) | 61.8 µM (inactive) |
| CN(CCNC(=O)c1nn(-c2ccc(Cl)cc2Cl)c2c1Cc1ccccc1-2)CCNC(=O)c1nn(-c2ccc(Cl)cc2Cl)c2c1Cc1ccccc1-2 | 5.09 µM (inactive) | 5.21 µM (inactive) | 2.43 µM (inactive) | 1.51 µM (inactive) | 2.29 | 4.53 µM (inactive) | 1.42 µM (inactive) | 2.25 µM (inactive) | 5.14 µM (inactive) | 2.94 µM (inactive) |  | 2.49 µM (inactive) | 1.86 µM (inactive) | 2.12 µM (inactive) | 3.39 µM (inactive) | 2.19 µM (inactive) | 4.94 µM (inactive) | 1.97 µM (inactive) | 4.69 µM (inactive) | 2.1 µM (inactive) |
| O=C(NC(=S)Nc1ccc2c(c1)Sc1ccccc1O2)c1ccc([N+](=O)[O-])cc1 | > 100 µM (inactive) | > 100 µM (inactive) | > 100 µM (inactive) | > 100 µM (inactive) | > 100 | > 100 µM (inactive) | > 100 µM (inactive) | > 100 µM (inactive) |  | > 100 µM (inactive) | > 100 µM (inactive) | > 100 µM (inactive) | > 100 µM (inactive) | > 100 µM (inactive) | > 100 µM (inactive) | > 100 µM (inactive) | > 100 µM (inactive) | > 100 µM (inactive) | > 100 µM (inactive) | > 100 µM (inactive) |
| NC(=O)c1cc(-c2ccc(-n3ccnc3)cc2)nnc1O | > 100 µM (inactive) | > 100 µM (inactive) |  | > 100 µM (inactive) | > 100 | > 100 µM (inactive) | > 100 µM (inactive) | > 100 µM (inactive) | > 100 µM (inactive) | > 100 µM (inactive) | > 100 µM (inactive) | > 100 µM (inactive) | > 100 µM (inactive) | > 100 µM (inactive) |  |  | > 100 µM (inactive) | > 100 µM (inactive) | > 100 µM (inactive) | > 100 µM (inactive) |
| COc1cc(OC)c2c(c1)OC(c1ccccc1)CC2=O (stereo not drawn) [DIMETHYLPINOCEMBRIN] | > 10 µM (inactive) | > 10 µM (inactive) | > 10 µM (inactive) | > 10 µM (inactive) | > 10 | > 10 µM (inactive) | > 10 µM (inactive) | > 10 µM (inactive) |  | > 10 µM (inactive) | > 10 µM (inactive) | > 10 µM (inactive) | > 10 µM (inactive) | > 10 µM (inactive) | > 10 µM (inactive) | > 10 µM (inactive) | > 10 µM (inactive) | > 10 µM (inactive) | > 10 µM (inactive) | > 10 µM (inactive) |
| O=C1C(=CNc2ccc([N+](=O)[O-])cc2)C(=O)N(c2ccccc2)C(=O)N1c1ccccc1 | > 100 µM (inactive) | 71.6 µM (inactive) | 66.2 µM (inactive) | > 100 µM (inactive) | 76 | 64.7 µM (inactive) | > 100 µM (inactive) | > 100 µM (inactive) | > 100 µM (inactive) | > 100 µM (inactive) | > 100 µM (inactive) | > 100 µM (inactive) | > 100 µM (inactive) | > 100 µM (inactive) | > 100 µM (inactive) | > 100 µM (inactive) | > 100 µM (inactive) |  |  | > 100 µM (inactive) |
